Molecules are shown by their SMILES.

The values that follow come from patent US9556181B2, “Substituted pyrazolopyrimidinylamino-indazoles” (BAYER PHARMA AKTIENGESELLSCHAFT, priority 2013, dated 2017).

Chain of human full-length MKNK1 (Q9BUB5 other isoform, or with tags, fused parts or gaps T344D): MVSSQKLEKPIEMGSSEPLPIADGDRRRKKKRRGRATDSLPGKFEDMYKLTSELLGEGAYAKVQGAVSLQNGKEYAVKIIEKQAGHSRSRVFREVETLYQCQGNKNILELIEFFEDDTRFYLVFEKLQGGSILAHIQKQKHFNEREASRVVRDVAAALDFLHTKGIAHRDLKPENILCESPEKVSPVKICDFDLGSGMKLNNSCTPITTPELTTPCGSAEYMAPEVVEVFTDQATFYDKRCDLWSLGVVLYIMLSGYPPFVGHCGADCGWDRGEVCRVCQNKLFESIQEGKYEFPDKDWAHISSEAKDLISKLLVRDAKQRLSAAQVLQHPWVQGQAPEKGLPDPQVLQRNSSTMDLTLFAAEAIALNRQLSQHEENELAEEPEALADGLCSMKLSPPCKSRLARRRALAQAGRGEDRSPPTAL

For the experiment, the target named is human full-length MKNK1 (Homo sapiens (Human), UniProt Q9BUB5, T344D). The experiment in a line: MKNK1 kinase high ATP assay (TR-FRET). It is filed as biochemical. The following applies: high ATP (2 mM final), 15 min preincubation with enzyme. The procedure:
MKNK1 Kinase High ATP Assay
MKNK1-inhibitory activity at high ATP of compounds of the present invention after their preincubation with MKNK1 was quantified employing the TR-FRET-based MKNK1 high ATP assay as described in the following paragraphs.
A recombinant fusion protein of Glutathione-S-Transferase (GST, N-terminally) and human full-length MKNK1 (amino acids 1-424 and T344D of accession number BAA 19885.1), expressed in insect cells using baculovirus expression system and purified via glutathione sepharose affinity chromatography, was purchased from Carna Biosciences (product no 02-145) and used as enzyme. As substrate for the kinase reaction the biotinylated peptide biotin-Ahx-IKKRKLTRRKSLKG (C-terminus in amide form) was used, which can be purchased e.g. from the company Biosyntan (Berlin-Buch, Germany).
For the assay 50 nL of a 100 fold concentrated solution of the test compound in DMSO was pipetted into a black low volume 384 well microtiter plate (Greiner Bio-One, Frickenhausen, Germany), 2 μL of a solution of MKNK1 in aqueous assay buffer [50 mM HEPES pH 7.5, 5 mM MgCl2, 1.0 mM dithiothreitol, 0.005% (v/v) Nonidet-P40 (Sigma)] was added and the mixture was incubated for 15 min at 22° C. to allow pre-binding of the test compounds to the enzyme before the start of the kinase reaction. Then the kinase reaction was started by the addition of 3 μL of a solution of adenosine-tri-phosphate (ATP, 3.3 mM=>final conc. in the 5 μL assay volume is 2 mM) and substrate (0.1 μM=>final conc. in the 5 μL assay volume is 0.06 μM) in assay buffer and the resulting mixture was incubated for a reaction time of 30 min at 22° C. The concentration of MKNK1 was adjusted depending of the activity of the enzyme lot and was chosen appropriate to have the assay in the linear range, typical concentrations were in the range of 0.003 μg/mL. The reaction was stopped by the addition of 5 μL of a solution of TR-FRET detection reagents (5 nM streptavidine-XL665 [Cisbio Bioassays, Codolet, France] and 1 nM anti-ribosomal protein S6 (pSer236)-antibody from Invitrogen [#44921G] and 1 nM LANCE EU-W1024 labeled ProteinG [Perkin-Elmer, product no. AD0071]) in an aqueous EDTA-solution (100 mM EDTA, 0.1% (w/v) bovine serum albumin in 50 mM HEPES pH 7.5).
The resulting mixture was incubated for 1 h at 22° C. to allow the formation of complex between the phosphorylated biotinylated peptide and the detection reagents. Subsequently the amount of phosphorylated substrate was evaluated by measurement of the resonance energy transfer from the Eu-chelate to the streptavidine-XL. Therefore, the fluorescence emissions at 620 nm and 665 nm after excitation at 350 nm were measured in a TR-FRET reader, e.g. a Rubystar (BMG Labtechnologies, Offenburg, Germany) or a Viewlux (Perkin-Elmer). The ratio of the emissions at 665 nm and at […] was taken as the measure for the amount of phosphorylated substrate. The data were normalised (enzyme reaction without inhibitor=0% inhibition, all other assay components but no enzyme=100% inhibition).
For orientation: In TR-FRET formats the signal depends on donor and acceptor labels being close together.
One may read the IC50 as the concentration needed to halve the response being measured. The low end stands for inhibition by little substance, the high end for a need for much substance. As for `c1nc(Nc2ccc3[nH]ncc3c2)c2cn[nH]c2n1` [Example 1, N-(1H-Indazol-5-yl)-1H-pyrazolo[3,4-d]pyrimidin-4-amine], the midpoint of inhibition, the IC50, lay at 117 nM. Then `CC(C)Oc1cc2[nH]ncc2cc1Nc1ncnc2[nH]ncc12` [Example 3, N-[6-(Propan-2-yloxy)-1H-indazol-5-yl]-1H-pyrazolo[3,4-d]pyrimidin-4-amine], with 531 nM; and `COc1cc2[nH]ncc2cc1Nc1ncnc2[nH]nc(Br)c12` [Example 4, 3-Bromo-N-(6-methoxy-1H-indazol-5-yl)-1H-pyrazolo[3,4-d]pyrimidin-4-amine], with 1 nM. `Fc1cc2[nH]ncc2cc1Nc1ncnc2[nH]nc(Br)c12` [Example 5, 3-Bromo-N-(6-fluoro-1H-indazol-5-yl)-1H-pyrazolo[3,4-d]pyrimidin-4-amine] displayed an IC50 of 12 nM. Then `Brc1n[nH]c2ncnc(Nc3ccc4[nH]ncc4c3)c12` [Example 6, 3-Bromo-N-(1H-indazol-5-yl)-1H-pyrazolo[3,4-d]pyrimidin-4-amine], with 14 nM.

As to `COc1cc2[nH]ncc2cc1Nc1ncnc2[nH]nc(-c3ccccc3)c12` [Example 7, N-(6-methoxy-1H-indazol-5-yl)-3-phenyl-1H-pyrazolo[3,4-d]pyrimidin-4-amine], the IC50 was 3 nM.

As to `Fc1cc2[nH]ncc2cc1Nc1ncnc2[nH]nc(-c3ccccc3)c12` [Example 8, N-(6-fluoro-1H-indazol-5-yl)-3-phenyl-1H-pyrazolo[3,4-d]pyrimidin-4-amine], the IC50 came out at 15 nM. For the compound `c1cncc(-c2n[nH]c3ncnc(Nc4ccc5[nH]ncc5c4)c23)c1` [Example 9, N-(1H-Indazol-5-yl)-3-(pyridin-3-yl)-1H-pyrazolo[3,4-d]pyrimidin-4-amine], the half-inhibitory concentration (IC50) turned out to be 8 nM. In turn, `COc1cc2[nH]ncc2cc1Nc1ncnc2[nH]nc(-c3cccnc3)c12` [Example 10, N-(6-Methoxy-1H-indazol-5-yl)-3-(pyridin-3-yl)-1H-pyrazolo[3,4-d]pyrimidin-4-amine] registered an IC50 of 6 nM.

Turning to `Fc1cc2[nH]ncc2cc1Nc1ncnc2[nH]nc(-c3cccnc3)c12` [Example 11, N-(6-fluoro-1H-indazol-5-yl)-3-(pyridin-3-yl)-1H-pyrazolo[3,4-d]pyrimidin-4-amine], the IC50 is 8 nM. Then `Fc1ccc(-c2n[nH]c3ncnc(Nc4ccc5[nH]ncc5c4)c23)cc1` [Example 12, 3-(4-Fluorophenyl)-N-(1H-indazol-5-yl)-1H-pyrazolo[3,4-d]pyrimidin-4-amine], with 12 nM; and `COc1cc2[nH]ncc2cc1Nc1ncnc2[nH]nc(-c3ccc(F)cc3)c12` [Example 13, 3-(4-Fluorophenyl)-N-(6-methoxy-1H-indazol-5-yl)-1H-pyrazolo[3,4-d]pyrimidin-4-amine], with 2 nM. Then `Fc1ccc(-c2n[nH]c3ncnc(Nc4cc5cn[nH]c5cc4F)c23)cc1` [Example 14, N-(6-Fluoro-1H-indazol-5-yl)-3-(4-fluorophenyl)-1H-pyrazolo[3,4-d]pyrimidin-4-amine], with 12 nM; and `c1ccc(-c2n[nH]c3ncnc(Nc4ccc5[nH]ncc5c4)c23)cc1` [Example 15, N-(1H-Indazol-5-yl)-3-phenyl-1H-pyrazolo[3,4-d]pyrimidin-4-amine], with 26 nM; and `COc1cc2[nH]ncc2cc1Nc1ncnc2[nH]nc(-c3ccncc3)c12` [Example 16, N-(6-Methoxy-1H-indazol-5-yl)-3-(pyridin-4-yl)-1H-pyrazolo[3,4-d]pyrimidin-4-amine], with 2 nM. With `CC(C)Oc1cc2[nH]ncc2cc1Nc1ncnc2[nH]nc(Br)c12` [Example 17, 3-Bromo-N-(6-isopropoxy-1H-indazol-5-yl)-1H-pyrazolo[3,4-d]pyrimidin-4-amine], the IC50 came to 1 nM. In the case of `CC(C)Oc1cc2[nH]ncc2cc1Nc1ncnc2[nH]nc(-c3ccccc3)c12` [Example 18, N-(6-Isopropoxy-1H-indazol-5-yl)-3-phenyl-1H-pyrazolo[3,4-d]pyrimidin-4-amine] it was 19 nM. Then `CC(C)Oc1cc2[nH]ncc2cc1Nc1ncnc2[nH]nc(-c3ccc(F)cc3)c12` [Example 19, 3-(4-Fluorophenyl)-N-(6-isopropoxy-1H-indazol-5-yl)-1H-pyrazolo[3,4-d]pyrimidin-4-amine], with 26 nM. Regarding `CC(C)Oc1cc2[nH]ncc2cc1Nc1ncnc2[nH]nc(-c3cccnc3)c12` [Example 20, N-(6-Isopropoxy-1H-indazol-5-yl)-3-(pyridin-3-yl)-1H-pyrazolo[3,4-d]pyrimidin-4-amine], the 50% inhibitory concentration (IC50) amounted to 63 nM. Then `CC(C)Oc1cc2[nH]ncc2cc1Nc1ncnc2[nH]nc(-c3ccncc3)c12` [Example 21, N-(6-Isopropoxy-1H-indazol-5-yl)-3-(pyridin-4-yl)-1H-pyrazolo[3,4-d]pyrimidin-4-amine], with 27 nM.
